Several values for one entry are separate records, joined by “and”; a condition that tells them apart may be missing. Equal entries are not always repeated. Inconclusive results and toxic doses are left out. Rule as the data show it: active = T/C of 150% or more; inactive = T/C below 125%.
Test system: L1210 leukemia ip in BDF1 mice, survival T/C
Assay: NCI In Vivo Anticancer Drug Screen. Data for tumor model L1210 Leukemia (intraperitoneal) in B6D2F1 (BDF1) mice
Settings: endpoint: mean survival time, higher = longer survival
Procedure, shortened: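 Read-out is survival time, reported as the treated-group measurement over the vehicle-control measurement.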

[1] = dose: 100.0 mg/kg/injection, schedule: Q01DX001 (ip), vehicle: saline
[2] = dose: 200.0 mg/kg/injection, schedule: Q01DX001 (ip), vehicle: saline
[3] = dose: 400.0 mg/kg/injection, schedule: Q01DX001 (ip), vehicle: saline
[4] = dose: 25.0 mg/kg/injection, schedule: Q01DX009 (ip), vehicle: saline with Tween-80
[5] = dose: 50.0 mg/kg/injection, schedule: Q01DX009 (ip), vehicle: saline with Tween-80
[6] = dose: 100.0 mg/kg/injection, schedule: Q01DX009 (ip), vehicle: saline with Tween-80
[7] = dose: 100.0 mg/kg/injection, schedule: Q04DX003 (ip), vehicle: saline with Tween-80
[8] = dose: 200.0 mg/kg/injection, schedule: Q01DX009 (ip), vehicle: saline with Tween-80
[9] = dose: 200.0 mg/kg/injection, schedule: Q04DX003 (ip), vehicle: saline with Tween-80
[10] = dose: 400.0 mg/kg/injection, schedule: Q04DX003 (ip), vehicle: saline with Tween-80
[11] = dose: 300.0 mg/kg/injection, schedule: Q01DX001 (ip), vehicle: saline
[12] = dose: 100.0 mg/kg/injection, schedule: Q01DX009 (ip), vehicle: Klucel (hydroxypropylcellulose) (HPC)
[13] = dose: 200.0 mg/kg/injection, schedule: Q01DX009 (ip), vehicle: Klucel (hydroxypropylcellulose) (HPC)
[14] = dose: 400.0 mg/kg/injection, schedule: Q01DX009 (ip), vehicle: Klucel (hydroxypropylcellulose) (HPC)

Measured: T/C

C[P+](Cc1ccc([N+](=O)[O-])cc1)(c1ccccc1)c1ccccc1
inactive: dose: 12.5 mg/kg/injection, schedule: Q01DX009 (ip), vehicle: Klucel (hydroxypropylcellulose) (HPC) 99 % of control | dose: 12.5 mg/kg/injection, schedule: Q04DX003 (ip), vehicle: Klucel (hydroxypropylcellulose) (HPC) 100 % of control | dose: 25.0 mg/kg/injection, schedule: Q01DX009 (ip), vehicle: Klucel (hydroxypropylcellulose) (HPC) 90 % of control | dose: 25.0 mg/kg/injection, schedule: Q04DX003 (ip), vehicle: Klucel (hydroxypropylcellulose) (HPC) 86 % of control | dose: 50.0 mg/kg/injection, schedule: Q04DX003 (ip), vehicle: Klucel (hydroxypropylcellulose) (HPC) 96 % of control

CC1NNC(=O)C1c1ccc([N+](=O)[O-])cc1 (stereo unspecified)
inactive: [1] 94 % of control | [2] 94 % of control | [3] 95 % of control

Cc1c(Cl)c(C)c(Cl)c(CCl)c1Cl
inactive: dose: 100.0 mg/kg/injection, schedule: Q01DX009 (ip), vehicle: saline sonified 100 % of control | dose: 100.0 mg/kg/injection, schedule: Q04DX003 (ip), vehicle: Klucel (hydroxypropylcellulose) (HPC) 97 % of control | dose: 200.0 mg/kg/injection, schedule: Q01DX009 (ip), vehicle: saline sonified 95 % of control | dose: 200.0 mg/kg/injection, schedule: Q04DX003 (ip), vehicle: Klucel (hydroxypropylcellulose) (HPC) 89 % of control | dose: 400.0 mg/kg/injection, schedule: Q01DX009 (ip), vehicle: saline sonified 91 % of control | dose: 400.0 mg/kg/injection, schedule: Q04DX003 (ip), vehicle: Klucel (hydroxypropylcellulose) (HPC) 92 % of control

O=P1(c2ccccc2)CCc2[nH]c3ccc(Br)cc3c2C1 (stereo unspecified)
inactive: dose: 100.0 mg/kg/injection, schedule: Q01DX001 (ip), vehicle: Klucel (hydroxypropylcellulose) (HPC) 97 % of control | dose: 200.0 mg/kg/injection, schedule: Q01DX001 (ip), vehicle: Klucel (hydroxypropylcellulose) (HPC) 93 % of control | dose: 400.0 mg/kg/injection, schedule: Q01DX001 (ip), vehicle: Klucel (hydroxypropylcellulose) (HPC) 98 % of control

NCCc1cnc[nH]1
inactive: dose: 50.0 mg/kg/injection, schedule: Q01DX009 (ip), vehicle: saline 89 % of control | dose: 100.0 mg/kg/injection, schedule: Q01DX009 (ip), vehicle: saline 106 % of control | dose: 200.0 mg/kg/injection, schedule: Q01DX009 (ip), vehicle: saline 89 % of control

Cc1cc(O)n(Cc2ccccc2)c(=O)c1
inactive: [4] 96 % of control | [5] 93 % of control | [6] 93 % of control | [7] 109 % of control | [8] 94 % of control | [9] 98 % of control | [10] 90 % of control

CCN(CC)CCCNC(C)CCCN(CC)CC (stereo unspecified)
inactive: dose: 50.0 mg/kg/injection, schedule: Q01DX009 (ip), vehicle: water 106 % of control | dose: 100.0 mg/kg/injection, schedule: Q01DX009 (ip), vehicle: water 97 % of control and 107 % of control | dose: 100.0 mg/kg/injection, schedule: Q04DX003 (ip), vehicle: water 98 % of control | dose: 200.0 mg/kg/injection, schedule: Q01DX009 (ip), vehicle: water 101 % of control and 103 % of control | dose: 200.0 mg/kg/injection, schedule: Q04DX003 (ip), vehicle: water 98 % of control | dose: 400.0 mg/kg/injection, schedule: Q01DX009 (ip), vehicle: water 93 % of control

O=[N+]([O-])c1ccc(O)c([N+](=O)[O-])c1
inactive: dose: 3.35 mg/kg/injection, schedule: Q01DX Z (ip), vehicle: carboxymethylcellulose (CMC) 94 % of control | dose: 10.32 mg/kg/injection, schedule: Q01DX Z (ip), vehicle: carboxymethylcellulose (CMC) 95 % of control | dose: 13.4 mg/kg/injection, schedule: Q01DX Z (ip), vehicle: carboxymethylcellulose (CMC) 98 % of control | dose: 17.86 mg/kg/injection, schedule: Q01DX Z (ip), vehicle: carboxymethylcellulose (CMC) 94 % of control | dose: 26.8 mg/kg/injection, schedule: Q01DX Z (ip), vehicle: carboxymethylcellulose (CMC) 88 % of control | [1] 94 % of control

Clc1ccc(Sc2ncnc3nc[nH]c23)cc1
inactive: [7] 102 % of control | [9] 100 % of control | [10] 105 % of control

CCCCCCC1N(C)CCCN1C
inactive: [4] 98 % of control | dose: 25.0 mg/kg/injection, schedule: Q04DX003 (ip), vehicle: saline with Tween-80 100 % of control | [5] 94 % of control | dose: 50.0 mg/kg/injection, schedule: Q04DX003 (ip), vehicle: saline with Tween-80 98 % of control | [6] 86 % of control | [7] 100 % of control and 103 % of control

CCNC(=O)N(CC)N=O
inactive: dose: 6.25 mg/kg/injection, schedule: Q01DX001 (ip), vehicle: saline 97 % of control | dose: 12.5 mg/kg/injection, schedule: Q01DX001 (ip), vehicle: saline 102 % of control | dose: 25.0 mg/kg/injection, schedule: Q01DX001 (ip), vehicle: saline 100 % of control | dose: 50.0 mg/kg/injection, schedule: Q01DX001 (ip), vehicle: saline 97 % of control | [1] 110 % of control | [2] 113 % of control | [11] 124 % of control | dose: 500.0 mg/kg/injection, schedule: Q01DX001 (ip), vehicle: saline 112 % of control

Nc1ccccc1C(=O)N/N=C/c1ccccc1Cl
inactive: [12] 102 % of control | [13] 97 % of control | [14] 86 % of control

CC(COS(C)(=O)=O)(COS(C)(=O)=O)Cc1ccccc1
inactive: [12] 103 % of control | [13] 95 % of control | [14] 93 % of control

CC(C)c1ccc(/C=C2\N=C(c3ccc([N+](=O)[O-])cc3)OC2=O)cc1
inactive: [12] 100 % of control | [13] 100 % of control | [14] 98 % of control

CC(C)C(=O)Nc1ccc(S(=O)(=O)NCCO)cc1
inactive: [7] 97 % of control | [9] 92 % of control | [10] 92 % of control

CCC(=O)Nc1cc(C(F)(F)F)ccc1Cl
inactive: [6] 96 % of control | [7] 103 % of control | [8] 96 % of control | [9] 98 % of control | dose: 400.0 mg/kg/injection, schedule: Q01DX009 (ip), vehicle: saline with Tween-80 98 % of control | [10] 98 % of control

Oc1ccc(C=NCCN=Cc2ccc(O)cc2O)c(O)c1
inactive: dose: 8.0 mg/kg/injection, schedule: Q01DX009 (ip), vehicle: saline with Tween-80 87 % of control | dose: 12.0 mg/kg/injection, schedule: Q01DX009 (ip), vehicle: saline with Tween-80 89 % of control

CCCCCCCC[As](C)(=O)O
inactive: dose: 6.25 mg/kg/injection, schedule: Q01DX009 (ip), vehicle: saline with Tween-80 89 % of control

CCOC(=O)c1ccccc1NC(c1ccccc1)c1ccc2cccnc2c1O (stereo unspecified)
inactive: [1] 101 % of control | [2] 97 % of control | [3] 91 % of control

O=C(O)c1c(O)cc(=O)oc1-c1ccccc1Cl
inactive: dose: 75.0 mg/kg/injection, schedule: Q01DX001 (ip), vehicle: saline 97 % of control | dose: 150.0 mg/kg/injection, schedule: Q01DX001 (ip), vehicle: saline 101 % of control | [11] 96 % of control

C[N+](C)(C)CCCCCCCCCC[N+](C)(C)CCCCCCCCCC[N+](C)(C)CCCCCCCCCC[N+](C)(C)C
inactive: dose: 25.0 micrograms/kg/injection, schedule: Q04DX003 (ip), vehicle: Klucel (hydroxypropylcellulose) (HPC) 96 % of control | dose: 50.0 micrograms/kg/injection, schedule: Q04DX003 (ip), vehicle: Klucel (hydroxypropylcellulose) (HPC) 97 % of control | dose: 100.0 micrograms/kg/injection, schedule: Q04DX003 (ip), vehicle: Klucel (hydroxypropylcellulose) (HPC) 97 % of control
